In EPA's ToxRefDB 2:

Experiments:
rat [1] = conditions: Prenatal developmental toxicity study, sprague dawley, Oral, Gavage/Intubation, dose end: 15 GD
rat [2] = conditions: Subchronic dermal toxicity, sprague dawley, Topical, dose end: 90 day, group: systemic, systemic / in life observation / clinical signs / erythema + systemic / in life observation / clinical signs / scabbing + systemic / …
rat [3] = conditions: Prenatal developmental toxicity study, sprague dawley, Oral, Gavage/Intubation, dose end: 15 GD; remark: listed apart in the source
rat [4] = conditions: Subchronic oral toxicity in rodents, fischer, Feed, dose end: 13 week, group: systemic, systemic / clinical chemistry / thyroxine (t4) / thyroxine (t4), total + systemic / in life observation / body weight / body weight + …
rat [5] = conditions: Subchronic oral toxicity in rodents, fischer, Inhalation, Whole-Body, dose end: 13 week, group: systemic
rabbit [6] = conditions: Prenatal developmental toxicity study; new zealand white; Inhalation; Whole-Body; dose end: 18 GD; group: maternal; systemic / in life observation / body weight / body weight gain
rat [7] = conditions: Prenatal developmental toxicity study; fischer; Inhalation; Whole-Body; dose end: 15 GD; group: maternal; systemic / in life observation / body weight / body weight + systemic / in life observation / body weight / body weight gain + systemic / in…
rabbit [8] = conditions: Prenatal developmental toxicity study, new zealand white, Oral, Gavage/Intubation, dose end: 19 GD
mouse [9] = conditions: Prenatal developmental toxicity study, cd1, Oral, Gavage/Intubation, dose end: 15 GD
rat [10] = conditions: Prenatal developmental toxicity study, other, Inhalation, Nose-Only, dose end: 16 GD
rat [11] = conditions: Sub-acute repeat dose toxicity, other, Inhalation, Nose-Only, dose end: 14 day, group: systemic
rat [12] = conditions: Subchronic oral toxicity in rodents, sprague dawley, Feed, dose end: 13 week, group: systemic, systemic / clinical chemistry / calcium / calcium + systemic / pathology microscopic / liver / accentuated lobular pattern + systemic / …
mouse [13] = conditions: Multigenerational reproductive toxicity study, cd1, Oral, Feed, dose end: 2 generation, group: offspring
rat [14] = conditions: Subchronic inhalation toxicity, sprague dawley, Nose-Only, dose end: 13 week, group: systemic
rat [15] = conditions: Multigenerational reproductive toxicity study, wistar, Oral, Feed, dose end: 2 generation
rabbit [16] = conditions: Prenatal developmental toxicity study, new zealand white, Oral, Gavage/Intubation, dose end: 19 GD; remark: listed apart in the source
rat [17] = conditions: Combined chronic toxicity/carcinogenicity, sprague dawley, Oral, [Not Specified], dose end: 24 month, group: systemic
mouse [18] = conditions: Carcinogenicity, b6c3f1, Oral, Feed, dose end: 112 week, group: systemic
dog = conditions: Chronic toxicity; beagle; Oral; Feed; dose end: 12 month; group: systemic; systemic / clinical chemistry / alkaline phosphatase (alp/alk) / alkaline phosphatase (alp/alk) + systemic / in life observation / body …
mouse [19] = conditions: Combined chronic toxicity/carcinogenicity, cd1, Oral, Feed, dose end: 78 week, group: systemic
rat [20] = conditions: Carcinogenicity, fischer, Oral, Feed, dose end: 107 week, group: systemic
[21] = group: developmental, developmental / developmental malformation / kidney / dilatation + developmental / developmental malformation / ureter / distended
[22] = group: maternal, systemic / in life observation / body weight / body weight
[23] = group: developmental, developmental / developmental malformation / bone / full supernumerary + developmental / developmental malformation / bone / incomplete …
[24] = group: maternal, systemic / hematology / erythrocyte (rbc) count differential / erythrocyte (rbc) + systemic / hematology / reticulocyte / reticulocyte + …
[25] = systemic / clinical chemistry / alanine aminotransferase (alt/sgpt) / alanine aminotransferase (alt/sgpt) + systemic / clinical chemistry / …
[26] = systemic / in life observation / clinical signs / urogenital staining + systemic / organ weight / kidney / relative to body weight
[27] = group: developmental, developmental / developmental malformation / bone / fused + developmental / developmental malformation / kidney / hydronephrosis + …
[28] = group: maternal, reproductive / reproductive performance / resorptions / resorptions + systemic / in life observation / body weight / body weight gain + …
[29] = group: developmental, developmental / developmental malformation / bone / [other] + developmental / developmental malformation / bone / absent + developmental / …
[30] = group: developmental, systemic / in life observation / body weight / fetal weight
[31] = group: maternal, reproductive / reproductive performance / postimplantation loss / postimplantation loss + reproductive / reproductive performance / …
[32] = group: developmental, developmental / developmental malformation / bone / incomplete ossification + developmental / developmental malformation / bone / short …
[33] = group: maternal, reproductive / reproductive performance / resorptions / resorptions + systemic / in life observation / body weight / body weight + systemic…
[34] = systemic / hematology / leukocyte (wbc) count differential / leukocyte (wbc) + systemic / in life observation / body weight / body weight + …
[35] = systemic / organ weight / kidney / relative to body weight + systemic / organ weight / liver / relative to body weight + systemic / organ …
[36] = systemic / in life observation / body weight / body weight + systemic / in life observation / clinical signs / [other] + systemic / in life …
[37] = group: offspring, systemic / in life observation / body weight / offspring (pup) weight + systemic / organ weight / spleen / absolute + systemic / organ …
[38] = group: parental, systemic / pathology microscopic / stomach / hyperkeratosis + systemic / pathology microscopic / stomach / hyperplasia + systemic / …
[39] = group: maternal, reproductive / reproductive performance / aborted / aborted + systemic / in life observation / body weight / body weight + systemic / in …
[40] = systemic / clinical chemistry / cholesterol / cholesterol + systemic / organ weight / liver / absolute + systemic / organ weight / liver / …
[41] = systemic / in life observation / body weight / body weight
[42] = systemic / in life observation / body weight / body weight + systemic / in life observation / clinical signs / alopecia
[43] = systemic / organ weight / liver / relative to body weight

## CCN1CN(CC)CN(CC)C1 [1,3,5-Triethylhexahydro-s-triazine]
Rat [1]; [21]
  LEL: 150 mg/kg/day
  LOAEL: 150 mg/kg/day
  NEL: 75 mg/kg/day
  NOAEL: 75 mg/kg/day
Rat [1]; [22]
  LEL: 150 mg/kg/day
  LOAEL: 150 mg/kg/day
  NEL: 75 mg/kg/day
  NOAEL: 75 mg/kg/day
Rat [2]
  LEL: 10 mg/kg/day
  LOAEL: 10 mg/kg/day
  NEL: < 10 mg/kg/day
  NOAEL: < 10 mg/kg/day

## CCCCOCCOC(=O)COc1ccc(Cl)cc1Cl [2,4-D-Butotyl]
Rat [3]; [23]
  LEL: 185 mg/kg/day
  LOAEL: 185 mg/kg/day
  NEL: 75 mg/kg/day
  NOAEL: 75 mg/kg/day
Rat [3]; [24]
  LEL: 185 mg/kg/day
  LOAEL: 185 mg/kg/day
  NEL: 75 mg/kg/day
  NOAEL: 75 mg/kg/day
Rat [4]
  LEL: 145 mg/kg/day
  LOAEL: 145 mg/kg/day
  NEL: 22 mg/kg/day
  NOAEL: 22 mg/kg/day

## CCCCCCOCCO [2-(Hexyloxy)ethanol]
Rat [5]; [25]
  LOAEL: > 71 ppm
  NOAEL: ≥ 71 ppm
Rat [5]; [26]
  LEL: 20 ppm
  NEL: < 20 ppm
Rabbit [6]
  LEL: 79.2 ppm
  LOAEL: > 79.2 ppm
  NEL: 41.1 ppm
  NOAEL: ≥ 79.2 ppm
Rat [7]
  LEL: 79.2 ppm
  LOAEL: > 79.2 ppm
  NEL: 41.1 ppm
  NOAEL: ≥ 79.2 ppm

## COCCOCCOC [Bis(2-methoxyethyl) ether]
Rabbit [8]; [27]
  LOAEL: > 175 mg/kg/day
  NEL: 25 mg/kg/day
  NOAEL: ≥ 175 mg/kg/day
Rabbit [8]; group: developmental, developmental / developmental malformation / limb / [other]
  LEL: 50 mg/kg/day
Rabbit [8]; [28]
  LOAEL: > 175 mg/kg/day
  NEL: 25 mg/kg/day
  NOAEL: ≥ 175 mg/kg/day
Rabbit [8]; group: maternal, systemic / in life observation / body weight / body weight gain
  LEL: 50 mg/kg/day
Mouse [9]; [29]
  LOAEL: > 500 mg/kg/day
  NEL: 62.5 mg/kg/day
  NOAEL: ≥ 500 mg/kg/day
Mouse [9]; [30]
  LEL: 125 mg/kg/day
Mouse [9]; [31]
  LOAEL: > 500 mg/kg/day
  NEL: 125 mg/kg/day
  NOAEL: ≥ 500 mg/kg/day
Mouse [9]; group: maternal, reproductive / reproductive performance / postimplantation loss / postimplantation loss + systemic / in life observation / body weight / …
  LEL: 250 mg/kg/day
Rat [10]; [32]
  LEL: 25 ppm
  LOAEL: > 400 ppm
  NEL: < 25 ppm
  NOAEL: ≥ 400 ppm
Rat [10]; [33]
  LOAEL: > 400 ppm
  NEL: 25 ppm
  NOAEL: ≥ 400 ppm
Rat [10]; group: maternal, systemic / in life observation / food consumption / food consumption + systemic / organ weight / liver / absolute + systemic / organ weight…
  LEL: 100 ppm
Rat [11]; [25]
  LOAEL: > 1000 ppm
  NOAEL: ≥ 1000 ppm
Rat [11]; [34]
  LEL: 100 ppm
  NEL: < 100 ppm

## CCCCCCCCOC(=O)c1ccccc1C(=O)OCCCCCCCC [Dioctyl phthalate]
Rat [12]
  LEL: 350 mg/kg/day
  LOAEL: > 350 mg/kg/day
  NEL: 36.8 mg/kg/day
  NOAEL: ≥ 350 mg/kg/day
Mouse [13]; systemic / organ weight / kidney / relative to body weight + systemic / organ weight / liver / relative to body weight
  NEL: 3600 mg/kg/day
Mouse [13]; [35]
  LEL: 7500 mg/kg/day
  LOAEL: > 7500 mg/kg/day
  NOAEL: ≥ 7500 mg/kg/day

## CCCCCCCCn1sccc1=O [Octhilinone]
Rat [14]; [36]
  LEL: 0.73 ppm
  LOAEL: 0.73 ppm
  NOAEL: 0.0733 ppm
Rat [14]; systemic / in life observation / clinical signs / respiration (rales) + systemic / pathology microscopic / nose / [other]
  NEL: 0.0733 ppm
Rat [15]; [37]
  LOAEL: 111 mg/kg/day
  NEL: 14 mg/kg/day
  NOAEL: 45 mg/kg/day
Rat [15]; group: offspring, systemic / organ weight / spleen / relative to body weight
  LEL: 45 mg/kg/day
Rat [15]; group: parental, systemic / pathology microscopic / stomach / hyperkeratosis + systemic / pathology microscopic / stomach / hyperplasia
  LOAEL: 96 mg/kg/day
Rat [15]; [38]
  LEL: 96 mg/kg/day
  NEL: 43 mg/kg/day
  NOAEL: 43 mg/kg/day
Rabbit [16]; [30]
  LEL: 80 mg/kg/day
  LOAEL: 80 mg/kg/day
  NEL: 20 mg/kg/day
  NOAEL: 20 mg/kg/day
Rabbit [16]; [39]
  LEL: 80 mg/kg/day
  LOAEL: 80 mg/kg/day
  NEL: 20 mg/kg/day
  NOAEL: 20 mg/kg/day

## CCCCOCCOCCOCc1cc2c(cc1CCC)OCO2 [Piperonyl butoxide]
Rat [17]; [40]
  LOAEL: 100 mg/kg/day
  NEL: 15 mg/kg/day
  NOAEL: 30 mg/kg/day
Rat [17]; systemic / organ weight / liver / absolute + systemic / organ weight / liver / relative to brain weight + systemic / pathology gross / …
  LEL: 30 mg/kg/day
Mouse [18]; [41]
  LOAEL: 155 mg/kg/day
  NOAEL: < 155 mg/kg/day
Mouse [18]; [42]
  LEL: 155 mg/kg/day
  NEL: < 155 mg/kg/day
dog
  LEL: 15.5 mg/kg/day
  LOAEL: 15.5 mg/kg/day
  NEL: 2.9 mg/kg/day
  NOAEL: 2.9 mg/kg/day
Mouse [19]; [43]
  LEL: 30 mg/kg/day
  NEL: < 30 mg/kg/day
Mouse [19]; systemic / organ weight / liver / relative to body weight + systemic / pathology microscopic / liver / adenoma
  NOAEL: 30 mg/kg/day
Mouse [19]; systemic / organ weight / liver / relative to body weight + systemic / pathology microscopic / liver / hypertrophy
  LOAEL: 100 mg/kg/day
Rat [20]; [41]
  LEL: 250 mg/kg/day
  LOAEL: 500 mg/kg/day
  NEL: < 250 mg/kg/day
Rat [20]; systemic / in life observation / body weight / body weight + systemic / pathology gross / full gross necropsy / lymphoma nos
  NOAEL: 250 mg/kg/day
